Ends that are not written are not given here.
How the values were obtained:
[1] = LC50 on immune cells (cytotoxic effect, cell viability); type: cell-based
Procedure: The mouse immune cells are obtained from C57BL6 mouse bone marrow. The human immune cells were purified from the whole blood of healthy donors (blood bank, IMSS, Cuernavaca, Mexico).
The peptides are incubated at 37° C., 5% CO2 in the presence of 500,000 immune and non-immune cells in RPMI medium at varied concentrations and at varied times. Peptide-free cells are used as the negative control and cells incubated for 5 min at 50° C. or in the presence of DMSO (30%) are used as the positive control. After incubation, the cells are washed then labelled with propidium iodide so as to measure the cell viability. The cell viability is analysed by counting or with flow cytometry in the presence of antibodies coupled with fluorochromes corresponding to characteristic markers of each cell population. The LC50 is then calculated as being the concentration of DA2N and DA2NEQ peptides inducing the death of 50% of each one of the immune cell populations.
Cytometry data processing is carried out with FlowJo software.

Human red blood cells = experiment: Haemolytic activity; type: cell-based; settings: 10 µM and 50 µM, 1h at 37° C.
Procedure: (§1) Mouse or donor blood is washed three times in 10 volumes of PBS at 4° C. by centrifugation at 800 g for 10 minutes. The blood sediment is finally diluted to 4% (v/v) in PBS buffer. The test was carried out as follows: either 10 µM, or 50 µM of peptide was added to 100 µL of red blood cell suspension.
(§2) After 1h of incubation at 37° C. followed by centrifugation (800 g, 15 min), the absorbance of the supernatant was measured at 550 nm.
(§3) The negative control for this test (0% haemolysis) contains 5 µL of PBS buffer instead of the solution containing the peptide and the positive control (100% haemolysis) contains 5 µL of 1% Triton X100 instead of the solution containing the peptide.

Mouse red blood cells = experiment: Haemolytic activity; type: cell-based; settings: results not shown
Procedure: as §1, §2, §3
The haemolytic activity of the antimicrobial peptides was measured as per the protocol described in part 3.1 of Example 3.

[2] = test system: psoriatic lesions and angiogenesis of skin; experiment: Imiquimod-induced psoriasis model; type: in vivo, balb/c mice; settings: topical, 10 µg; no Imiquimod treatment
Procedure: The DA2N and DA2NEQ peptides were tested in an Imiquimod-induced psoriasis model described by Van der Fits (Van der Fits et al. 2009. Journal of immunology. 182(9):5836-5845) on female balb/c mice, aged 7 to 8 weeks.
31 mg of commercial cream containing 5% Imiquimod (Aldara, 3 M Pharmaceuticals) is applied topically on about 2.5 cm of the previously shaven ventral region of the mice for 6 days. The first psoriatic lesions appear on the 3rd day. The peptides resuspended in the cream are applied topically or intravenously (10 µg) for the first 3 days of Imiquimod treatment. Mice with no Imiquimod treatment and/or with no peptide application were used as controls. On the 6th day, the mice are sacrificed and the skin sampled is analysed by microscopy (skin lesions and angiogenesis).

[3] = test system: Bacillus subtilis CIP 52.65; experiment: MIC/MBC, growth inhibition in liquid medium (Example 2); type: cell-based; settings: Table 2
Description: (§4) Escherichia coli (ATCC 8739, ATCC ML35p and P7 BLSE), Pseudomonas aeruginosa (ATCC 9027 and ATCC 27853), Klebsiella oxytoca (CIP 7932), Klebsiella pneumoniae (CIP 52.211), Salmonella enterica (CIP 8297), Yersinia ruckeri (ATCC 29473), Vibrio parahemolyticus (IFREMER 01 01/252), Staphylococcus aureus (ATCC 6538, ST 1065 and MRSA), Staphylococcus epidermidis (BM 3302), Listeria monocytogenes (SOR 100), Enterococcus faecalis (CIP A186, CIP 103015)), Kocuria rhizophila (ATCC 9341), Lactococcus garviae (ATCC 43921), Bacillus subtilis (CIP 52.65).
(§5) For each strain, a 5 ml pre-culture in LB medium is prepared by inoculating a colony of the bacterial strain of interest. The pre-culture is incubated at 37° C. under stirring overnight. The culture is subcultured (30 µL) in 5 mL. The culture concentration is evaluated by measuring the optical density at 620 nm. The concentration is adjusted by dilution so as to obtain a suspension with an OD of 0.05 at 620 nm.
(§6) The MIC is determined using a growth inhibition test in liquid medium. The MIC is defined as being the lowest peptide concentration capable of inhibiting the bacterial strain tested, after incubation for 18 h at 37° C. The test was carried out in a sterile microtitration plate containing 96 wells. A series of increasing concentrations of each peptide (0.2 to 100 µM) was prepared beforehand in sterile MilliQ water. In each well, 10 µL of peptide was incubated with 90 µL of bacterial suspension (10^7 cfu/mL) in yeast extract-free LB medium. The microplate was incubated at 37° C. for 18 h. The bacterial growth was evaluated by measuring the OD at 620 nm using a plate reader.
(§7) The negative growth inhibition control was obtained by replacing the solution containing the peptide by sterile MilliQ water. The positive control suitable for completely inhibiting the growth of the bacterial strains was obtained by replacing the solution containing the peptide by 10 µL of formaldehyde.
(§8) The results are interpreted by calculating the percentage of bacterial growth in each well according to the formula:
(§9) %Growth = (OD well - OD of T0)/(OD of T100-OD of T0)*100 where
(§10) • OD of T100 = OD of growth control (bacterial suspension free from sample under test, 100% growth), • OD of T0 = OD of sterility control (culture medium + bacterium + 10 µL formaldehyde, 0% growth) and • OD well = OD of well for which it is sought to calculate the growth percentage (bacterial suspension + peptide under test).
(§11) The MBC is defined as being the minimum peptide concentration leaving no surviving bacteria of the inoculum after incubation at 37° C. for 24 hours. This test consists of smearing the contents of the well wherein the peptide has inhibited bacterial growth on a Petri dish (LB agar), followed by incubation for 24 h at 37° C.

[4] = test system: Escherichia coli ATCC 8739; experiment: as above; type: cell-based; settings: Table 2
Description: as §4, §5, §6, §7, §8, §9, §10, §11

[5] = test system: Kocuria rhizophila ATCC 9341; experiment: as above; type: cell-based; settings: Table 2
Description: as §4, §5, §6, §7, §8, §9, §10, §11

[6] = test system: Staphylococcus aureus ATCC 6538; experiment: as above; type: cell-based; settings: Table 2
Description: as §4, §5, §6, §7, §8, §9, §10, §11

[7] = test system: Staphylococcus aureus ST 1065; experiment: as above; type: cell-based; settings: Table 2
Description: as §4, §5, §6, §7, §8, §9, §10, §11

[8] = C57BL6, Neutrophils, Mouse cells
[9] = C57BL6, T lymphocytes, Mouse cells

Substance	CC50 ([1]; C57BL6, Monocytes, Mouse cells)	CC50 ([1]; C57BL6, NK cells, Mouse cells)	CC50 [1, 8]	CC50 [1, 9]	CC50 ([1]; Monocytes, Human cells)	CC50 ([1]; NK cells, Human cells)	CC50 ([1]; Neutrophils, Human cells)	CC50 ([1]; T lymphocytes, Human cells)	haemolysis of human red blood cells (Human red blood cells)	haemolysis of mouse red blood cells (Mouse red blood cells)	angiogenesis of healthy skin [2]	effect on healthy skin [2]	MBC [3]	MIC [3]	MBC [4]	MIC [4]	MBC [5]	MIC [5]	MBC [6]	MIC [6]	also measured
ALWKTLLKKVGKVAGKAVLNAVTNMANQN-OH [DA2N]	5 µM	3 µM	6 µM	3 µM	4 µM	4 µM	7.5 µM	4 µM	do not induce the haemolysis	do not induce the haemolysis	no effect on the angiogenesis of healthy skin	no effect on healthy skin	6.25 µM	6.25 µM	3.12 µM	3.12 µM	3.12 µM	3.12 µM	6.25 µM	6.25 µM	MBC [7]: 12.5 µM; MIC [7]: 12.5 µM
ALWKTLLKKVGKVAGKAVLNAVTNMANQNEQ [DA2NEQ, ALWKTLLKKVGKVAGKAVLNAVTNMANQNEQOH]	7 µM	4 µM	7.5 µM	5 µM	4 µM	4 µM	7 µM	5 µM	do not induce the haemolysis	do not induce the haemolysis	no effect on the angiogenesis of healthy skin	no effect on healthy skin	6.25 µM	6.25 µM	6.25 µM	3.12 µM	6.25 µM	6.25 µM	12.5 µM	12.5 µM	MBC [7]: >100 µM; MIC [7]: >100 µM
